Results reported in ChEMBL document CHEMBL4417631, “Oral peptide inhibitors of interleukin-23 receptor and their use to treat inflammatory bowel diseases” (2017).
Where a SMILES comes first, the peptide text is derived from it. [ ]: non-standard residue; d: D form. 2Nal = N[C@@H](Cc1ccc2ccccc2c1)C(=O)O; Pen = CC(C)(S)[C@H](N)C(=O)O; αMeK = C[C@](N)(CCCCN)C(=O)O

Columns and labels:
[1] = Half life in simulated gastric fluid at 20 uM by LC-MS/MS analysis; format: ADME
[2] = Half life in simulated intestinal fluid at 20 uM by LC-MS/MS analysis; format: ADME
[3] = Inhibition of interleukin-23 binding to rat interleukin-23 receptor incubated for 2 hrs by competitive binding ELISA
Interleukin-23 receptor [4] = molecular target: T1, Interleukin-23 receptor (Homo sapiens, UniProt Q5VWK5); experiment: Inhibition of interleukin-23 receptor in human DB cells assessed as reduction in IL-23-stimulated STAT3 phosphorylation incubated for 30 mins by HTRF assay; format: cell-based
T1 sequence (Q5VWK5 whole entry): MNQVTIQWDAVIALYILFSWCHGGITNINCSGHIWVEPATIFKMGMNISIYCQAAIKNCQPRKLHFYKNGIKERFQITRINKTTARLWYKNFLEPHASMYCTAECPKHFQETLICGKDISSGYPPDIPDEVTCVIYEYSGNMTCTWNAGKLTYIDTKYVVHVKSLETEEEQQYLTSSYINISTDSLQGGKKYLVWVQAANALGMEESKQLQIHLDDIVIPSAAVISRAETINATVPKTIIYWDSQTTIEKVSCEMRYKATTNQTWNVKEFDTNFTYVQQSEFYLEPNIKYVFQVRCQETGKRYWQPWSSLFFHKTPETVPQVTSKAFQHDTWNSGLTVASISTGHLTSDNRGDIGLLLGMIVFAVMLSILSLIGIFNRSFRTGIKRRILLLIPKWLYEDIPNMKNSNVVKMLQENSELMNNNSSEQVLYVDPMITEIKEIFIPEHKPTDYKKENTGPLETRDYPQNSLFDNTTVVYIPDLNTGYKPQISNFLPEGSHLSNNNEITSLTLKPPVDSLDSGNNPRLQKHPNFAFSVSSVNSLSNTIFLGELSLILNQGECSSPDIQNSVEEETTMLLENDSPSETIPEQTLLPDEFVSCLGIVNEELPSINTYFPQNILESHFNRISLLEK

Interleukin-23 receptor [5] = molecular target: T1, Interleukin-23 receptor; experiment: Inhibition of interleukin-23 binding to human interleukin-23 receptor incubated for 2 hrs by competitive binding ELISA

| Compound | half-life at 20 µM [1] [h] | half-life at 20 µM [2] [h] | IC50 [3] [nM] | IC50 (Interleukin-23 receptor [4]) [nM] | IC50 (Interleukin-23 receptor [5]) [nM] |
| --- | --- | --- | --- | --- | --- |
| CC(=O)N[C@@H](Cc1ccccc1)C(=O)N[C@H]1CCSC[C@@H](C(=O)N[C@@H](Cc2ccc(OCCN)cc2)C(=O)N[C@@H](Cc2ccc3ccccc3c2)C(=O)N[C@@](C)(CCCCN)C(=O)N[C@@H](CCC(=O)O)C(=O)N[C@@H](CC(N)=O)C(=O)N[C@@H](CC(N)=O)C(N)=O)NC(=O)[C@H](CCC(N)=O)NC(=O)[C@H](Cc2c[nH]c3ccccc23)NC(=O)[C@H]([C@@H](C)O)NC(=O)[C@H](CCC(N)=O)NC1=O | 2 to 3 | 1 to 2 |  |  |  |
| CC(=O)NCCCC[C@H](NC(=O)C(C)(C)NC(=O)[C@H](Cc1ccc2ccccc2c1)NC(=O)[C@H](Cc1ccc(OCCN)cc1)NC(=O)[C@@H](NC(=O)[C@H](CCC(N)=O)NC(=O)[C@H](Cc1c[nH]c2ccccc12)NC(=O)[C@@H](NC(=O)[C@H](CC(N)=O)NC(=O)[C@@H](NC(=O)[C@@H](Cc1ccccc1)NC(C)=O)C(C)(C)S)[C@@H](C)O)C(C)(C)S)C(=O)N[C@@H](CC(N)=O)C(=O)NCCC(N)=O | 3 to 6 | > 6 |  |  |  |
| CC(=O)NCCCC[C@H](NC(=O)C1(NC(=O)[C@H](Cc2ccc3ccccc3c2)NC(=O)[C@H](Cc2ccc(C(N)=O)cc2)NC(=O)[C@@H](NC(=O)[C@H](CCC(N)=O)NC(=O)[C@H](Cc2c[nH]c3ccccc23)NC(=O)[C@@H](NC(=O)[C@H](CC(N)=O)NC(=O)[C@@H](NC(C)=O)C(C)(C)S)[C@@H](C)O)C(C)(C)S)CCCCC1)C(=O)N[C@@H](CC(N)=O)C(=O)N[C@@H](CC(N)=O)C(N)=O | > 6 | > 6 |  |  |  |
| COc1ccc(C[C@H](NC(=O)[C@@H](NC(=O)[C@H](CCC(N)=O)NC(=O)[C@H](Cc2c[nH]c3ccccc23)NC(=O)[C@@H](NC(=O)[C@H](CC(N)=O)NC(=O)[C@@H](NC(C)=O)C(C)(C)S)[C@@H](C)O)C(C)(C)S)C(=O)N[C@@H](Cc2ccc3ccccc3c2)C(=O)N[C@@](C)(CC(C)C)C(=O)N[C@@H](CCCCNC(C)=O)C(=O)N[C@@H](CC(N)=O)C(=O)N[C@@H](CC(N)=O)C(N)=O)cc1 | > 6 | > 6 |  |  |  |
| CC(=O)NCCCC[C@H](NC(=O)[C@](C)(CC(C)C)NC(=O)[C@H](Cc1ccc2ccccc2c1)NC(=O)[C@H](Cc1ccc(C(N)=O)cc1)NC(=O)[C@@H](NC(=O)[C@H](CCC(N)=O)NC(=O)[C@H](Cc1c[nH]c2ccccc12)NC(=O)[C@@H](NC(=O)[C@H](CC(N)=O)NC(=O)[C@@H](NC(C)=O)C(C)(C)S)[C@@H](C)O)C(C)(C)S)C(=O)N[C@@H](CC(N)=O)C(=O)N[C@@H](CC(N)=O)C(N)=O | > 6 | > 6 |  |  |  |
| CC(=O)NCCCC[C@H](NC(=O)[C@H](CCC(C)C)NC(=O)[C@H](Cc1ccc2ccccc2c1)NC(=O)[C@H](Cc1ccc(OCCN)cc1)NC(=O)[C@@H]1CSCC[C@H](NC(C)=O)C(=O)N[C@@H](CCC(N)=O)C(=O)N[C@@H]([C@@H](C)O)C(=O)N[C@@H](Cc2c[nH]c3ccccc23)C(=O)N[C@@H](CCC(N)=O)C(=O)N1)C(=O)N[C@@H](CC(N)=O)C(=O)NCCC(N)=O |  | < 1 | < 10 | < 10 | < 10 |
| CC(=O)NCCCC[C@H](NC(=O)[C@](C)(CCCCN)NC(=O)[C@H](Cc1ccc2ccccc2c1)NC(=O)[C@H](Cc1ccc2ccccc2c1)NC(=O)[C@@H]1CSCC[C@H](NC(C)=O)C(=O)N[C@@H](CCC(N)=O)C(=O)N[C@@H]([C@@H](C)O)C(=O)N[C@@H](Cc2c[nH]c3ccccc23)C(=O)N[C@@H](CCC(N)=O)C(=O)N1)C(=O)N[C@@H](CC(N)=O)C(=O)NCC(N)=O |  | 3 to 6 | 25 to 100 | 10 to 25 | 25 to 100 |
| COc1ccc(C[C@H](NC(=O)[C@@H](NC(=O)[C@H](CCC(N)=O)NC(=O)[C@H](Cc2c[nH]c3ccccc23)NC(=O)[C@@H](NC(=O)[C@H](CC(N)=O)NC(=O)[C@@H](NC(C)=O)C(C)(C)S)[C@@H](C)O)C(C)(C)S)C(=O)N[C@@H](Cc2ccc3ccccc3c2)C(=O)NC2(C(=O)N[C@@H](CCCCNC(C)=O)C(=O)N[C@@H](CC(N)=O)C(=O)N[C@@H](CC(N)=O)C(N)=O)CCCCC2)cc1 | > 6 | 3 to 6 |  |  |  |
| CC(=O)N[C@H](C(=O)N[C@@H](CCC(N)=O)C(=O)N[C@H](C(=O)N[C@@H](Cc1c[nH]c2ccccc12)C(=O)N[C@@H](CCC(N)=O)C(=O)N[C@H](C(=O)N[C@@H](Cc1ccc2ccccc2c1)C(=O)N[C@@H](Cc1ccc2ccccc2c1)C(=O)N[C@@](C)(CCCCN)C(=O)N[C@@H](CCC(=O)O)C(=O)N[C@@H](CC(N)=O)C(=O)NCC(N)=O)C(C)(C)S)[C@@H](C)O)C(C)(C)S (Ac-[Pen]QTWQ[Pen][2Nal][2Nal][αMeK]ENG-NH2) |  | 3 to 6 | 100 to 1000 | 10 to 25 | 100 to 1000 |
| CC(=O)NCCCC[C@H](NC(=O)[C@](C)(CCCN)NC(=O)[C@H](Cc1c[nH]c2ccccc12)NC(=O)[C@H](Cc1ccc(O)cc1)NC(=O)[C@@H]1CSCC[C@H](NC(C)=O)C(=O)N[C@@H](CCC(N)=O)C(=O)N[C@@H]([C@@H](C)O)C(=O)N[C@@H](Cc2c[nH]c3ccccc23)C(=O)N[C@@H](CCC(N)=O)C(=O)N1)C(=O)N[C@@H](CC(N)=O)C(=O)NCC(N)=O |  | 3 to 6 | 25 to 100 | 10 to 25 | 25 to 100 |
| CC(=O)N[C@H](C(=O)N[C@@H](CCC(N)=O)C(=O)N[C@H](C(=O)N[C@@H](Cc1c[nH]c2ccccc12)C(=O)N[C@@H](CCC(N)=O)C(=O)N[C@H](C(=O)N[C@@H](Cc1ccc(O)cc1)C(=O)N[C@@H](Cc1cccc2ccccc12)C(=O)N[C@@](C)(CCCN)C(=O)N[C@@H](CCC(=O)O)C(=O)N[C@@H](CC(N)=O)C(=O)NCC(N)=O)C(C)(C)S)[C@@H](C)O)C(C)(C)S |  | 3 to 6 | 100 to 1000 | 25 to 100 | 100 to 1000 |
| CC(=O)N[C@H](C(=O)N[C@@H](CCC(N)=O)C(=O)N[C@H](C(=O)N[C@@H](Cc1c[nH]c2ccccc12)C(=O)N[C@@H](CCC(N)=O)C(=O)N[C@H](C(=O)N[C@@H](Cc1ccc(O)cc1)C(=O)N[C@@H](Cc1c[nH]c2ccccc12)C(=O)N[C@@](C)(CCCN)C(=O)N[C@@H](CCC(=O)O)C(=O)N[C@@H](CC(N)=O)C(=O)NCC(N)=O)C(C)(C)S)[C@@H](C)O)C(C)(C)S |  | 3 to 6 | 100 to 1000 | 25 to 100 | 100 to 1000 |
| CC(=O)N[C@H]1CCSC[C@@H](C(=O)N[C@@H](Cc2ccc(O)cc2)C(=O)N[C@@H](Cc2c[nH]c3ccccc23)C(=O)N[C@@H](CCCNC(=N)N)C(=O)N[C@@H](CCC(=O)O)C(=O)N[C@@H](CC(N)=O)C(=O)NCC(=O)NCCOCC(=O)N[C@H](CCCCN)C(N)=O)NC(=O)[C@H](CCC(N)=O)NC(=O)[C@H](Cc2c[nH]c3ccccc23)NC(=O)[C@H]([C@@H](C)O)NC(=O)[C@H](CCC(N)=O)NC1=O |  | < 1 | 100 to 1000 | 25 to 100 | 100 to 1000 |
| CC(=O)N[C@H]1CCSC[C@@H](C(=O)N[C@@H](Cc2ccc(O)cc2)C(=O)N[C@@H](Cc2c[nH]c3ccccc23)C(=O)N[C@@](C)(CC(C)C)C(=O)N[C@@H](CCC(=O)O)C(=O)N[C@@H](CC(N)=O)C(=O)NCC(N)=O)NC(=O)[C@H](CCC(N)=O)NC(=O)[C@H](Cc2c[nH]c3ccccc23)NC(=O)[C@H]([C@@H](C)O)NC(=O)[C@H](CCC(N)=O)NC1=O |  | < 1 | 25 to 100 | < 10 | 10 to 25 |
